Data taken from patent US8959984B2, “Proteome-wide quantification of small molecule binding to cellular target proteins” (priority 2007, dated 2015).
Values joined by “and” are separate entries in the source; they are usually repeats but may differ in a detail not shown here. Identical values can stand only once.

Tests used:
Assay in all cases: binding to AX14596 beads (HeLa lysate, SILAC MS)
JNK2 (MAPK9) = JNK2 (MAPK9) (Homo sapiens, UniProt P45984)
Protocol: (§1) Differentially SILAC-encoded cell lysates were either incubated with the inhibitor beads displaying immobilized AX14596 or control resin devoid of ligand. In parallel, the supernatant from the first binding step was subjected to a second incubation with the AX14596 resin (FIG. 4). The resulting three elution fractions were combined, resolved by gel electrophoresis, proteolytically digested and the relative abundance of the retained proteins quantified. Proteins showing considerable binding to the control resin were identified as non-specific interactors and therefore not considered further. […] These target-specific ratios were similar in “label switch” experiments (FIGS. 6a and 6c). The binding equilibrium was determined in parallel control SILAC experiments as well as the excess of the immobilized compound over its cellular targets, the excess preferably being a molar excess (FIG. 7 and FIG. 8).
(§2) Cysteine carbamidomethylation was set as a fixed modification and N-acetyl protein and oxidized methionine were allowed as variable modifications. Spectra that were determined to result from heavy labeled peptides in the pre-search detection of SILAC partners by MaxQuant were searched with the fixed modifications Lys^4, Lys^8, Arg^6 and Arg^10, whereas MS/MS spectra for which no SILAC state could be assigned before database searching were searched with Lys^4, Lys^8, Arg^6 and Arg^10 as variable modifications. The mass tolerance was set to 5 ppm for monoisotopic precursor ions and to 0.5 Da for MS/MS peaks. The minimum peptide length was set to 6 amino acids and up to three missed cleavages and three isotopically labeled amino acids were permitted per peptide. The accepted false discovery rate (FDR) was 1% for the proteins and peptides. The cut-off for the posterior error probability (PEP) of peptides was set to 10%. Peptide PEPs were determined by generating Mascot score and peptide-length-dependent histograms for both the forward and the reverse hits and then deriving the probability of a false identification for a given top-scoring peptide using Bayes' theorem. The PEPs of peptides belonging to the same proteins were then multiplied. Each peptide sequence was considered only once with the lowest PEP determined in case of multiple sequencing of the same isotopic pattern or of peptide species with different SILAC, charge or modification states. Proteins were then sorted according to their products of their peptide PEPs and included until a FDR of 1% was reached according to the fraction of reverse proteins contained in the protein list. In addition to the FDR threshold applied for protein identification, proteins were only included when they were identified with at least two peptides (of which one was required to be unique for the protein) and quantified if at least on quantifiable SILAC pair was associated with them. Outliers were not removed as protein ratios were calculated as the median instead of the average of all peptide ratios. For peptides shared among different identified proteins, SILAC ratios were only considered for the ratio of the protein identified with the highest number of unique peptides. Protein ratios for the different in vitro association experiments were corrected for the initial SILAC pooling ratio, which was determined from the median of protein ratios in pooled SILAC-encoded cell extracts.

LYN = LYN (Homo sapiens, UniProt P07948)
Protocol: as §1, §2

RIPK2 = RIPK2 (Homo sapiens, UniProt O43353)
Protocol: as §1, §2

YES (YES1) = molecular target: T1, YES (YES1) (Homo sapiens, UniProt P07947)
T1 construct: endogenous in cells; host or cells: HeLa S3
Protocol: as §1, §2

EphB2 = molecular target: T2, EphB2 (Homo sapiens, UniProt P29323)
T2 sequence (P29323 19-1055): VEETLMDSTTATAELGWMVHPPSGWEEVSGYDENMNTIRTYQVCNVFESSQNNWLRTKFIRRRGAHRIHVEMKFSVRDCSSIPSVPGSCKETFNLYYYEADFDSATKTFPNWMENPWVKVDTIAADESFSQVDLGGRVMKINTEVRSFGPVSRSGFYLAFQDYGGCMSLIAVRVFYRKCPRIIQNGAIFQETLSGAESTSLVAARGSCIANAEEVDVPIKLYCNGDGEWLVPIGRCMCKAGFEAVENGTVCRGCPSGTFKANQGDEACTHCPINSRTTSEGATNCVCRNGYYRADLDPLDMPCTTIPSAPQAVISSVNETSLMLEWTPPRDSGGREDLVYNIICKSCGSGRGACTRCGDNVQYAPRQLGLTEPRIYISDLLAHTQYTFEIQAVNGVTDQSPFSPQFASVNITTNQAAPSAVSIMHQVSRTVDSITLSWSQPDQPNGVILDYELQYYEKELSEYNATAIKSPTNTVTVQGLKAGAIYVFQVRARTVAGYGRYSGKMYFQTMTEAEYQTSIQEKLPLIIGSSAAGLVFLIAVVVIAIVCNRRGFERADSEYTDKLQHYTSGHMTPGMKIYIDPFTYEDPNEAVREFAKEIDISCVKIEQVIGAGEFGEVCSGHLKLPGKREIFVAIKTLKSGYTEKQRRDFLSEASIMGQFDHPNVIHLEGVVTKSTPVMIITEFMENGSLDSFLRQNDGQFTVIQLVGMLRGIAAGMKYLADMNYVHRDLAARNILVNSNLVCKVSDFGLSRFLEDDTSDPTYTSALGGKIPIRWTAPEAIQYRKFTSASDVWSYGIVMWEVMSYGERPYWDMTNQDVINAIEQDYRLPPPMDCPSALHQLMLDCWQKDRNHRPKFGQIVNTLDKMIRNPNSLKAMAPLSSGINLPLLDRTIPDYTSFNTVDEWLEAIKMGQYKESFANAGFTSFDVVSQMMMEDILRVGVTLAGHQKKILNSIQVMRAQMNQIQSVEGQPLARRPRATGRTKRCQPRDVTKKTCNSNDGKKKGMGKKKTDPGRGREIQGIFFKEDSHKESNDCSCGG
Protocol: as §1, §2

CDA = molecular target: T3, CDA (Homo sapiens, UniProt P32320)
T3 construct: endogenous in cells; host or cells: HeLa S3
Protocol: as §1, §2

[1] = molecular target: p38a (MAPK14, IPI00002857) (Homo sapiens, UniProt Q16539)
Protocol: as §1, §2

T3 sequence (P32320 whole entry): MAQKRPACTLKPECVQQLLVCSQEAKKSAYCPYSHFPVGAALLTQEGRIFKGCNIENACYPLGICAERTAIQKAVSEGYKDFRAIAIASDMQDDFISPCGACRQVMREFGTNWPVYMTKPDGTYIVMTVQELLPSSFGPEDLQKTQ
T1 sequence (P07947 whole entry): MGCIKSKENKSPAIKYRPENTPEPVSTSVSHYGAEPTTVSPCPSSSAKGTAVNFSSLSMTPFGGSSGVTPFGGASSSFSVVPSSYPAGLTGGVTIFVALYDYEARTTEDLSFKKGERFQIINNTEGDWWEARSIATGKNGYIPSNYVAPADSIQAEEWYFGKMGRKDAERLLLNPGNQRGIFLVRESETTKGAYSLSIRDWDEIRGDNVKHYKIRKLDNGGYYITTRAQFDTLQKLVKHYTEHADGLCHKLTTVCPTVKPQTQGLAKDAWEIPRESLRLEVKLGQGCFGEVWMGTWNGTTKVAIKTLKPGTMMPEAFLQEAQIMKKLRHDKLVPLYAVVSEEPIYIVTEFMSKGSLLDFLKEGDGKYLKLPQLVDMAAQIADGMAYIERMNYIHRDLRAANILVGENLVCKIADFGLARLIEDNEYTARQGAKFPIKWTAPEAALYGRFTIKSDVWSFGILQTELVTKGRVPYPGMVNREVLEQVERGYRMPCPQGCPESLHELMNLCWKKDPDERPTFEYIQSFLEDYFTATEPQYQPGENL
JNK2 (MAPK9), sequence (P45984 whole entry): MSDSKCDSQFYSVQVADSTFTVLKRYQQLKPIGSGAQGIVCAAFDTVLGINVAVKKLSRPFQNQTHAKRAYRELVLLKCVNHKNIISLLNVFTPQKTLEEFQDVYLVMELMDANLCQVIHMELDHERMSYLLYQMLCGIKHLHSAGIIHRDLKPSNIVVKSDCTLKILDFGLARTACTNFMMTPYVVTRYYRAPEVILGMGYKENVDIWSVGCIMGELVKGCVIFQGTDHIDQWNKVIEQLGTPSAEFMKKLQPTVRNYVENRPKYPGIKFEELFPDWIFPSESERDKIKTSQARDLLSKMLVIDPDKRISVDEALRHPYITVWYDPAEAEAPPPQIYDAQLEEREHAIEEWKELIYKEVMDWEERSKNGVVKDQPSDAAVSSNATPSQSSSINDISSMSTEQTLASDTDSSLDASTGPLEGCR
p38a (MAPK14, IPI00002857), sequence (Q16539 whole entry): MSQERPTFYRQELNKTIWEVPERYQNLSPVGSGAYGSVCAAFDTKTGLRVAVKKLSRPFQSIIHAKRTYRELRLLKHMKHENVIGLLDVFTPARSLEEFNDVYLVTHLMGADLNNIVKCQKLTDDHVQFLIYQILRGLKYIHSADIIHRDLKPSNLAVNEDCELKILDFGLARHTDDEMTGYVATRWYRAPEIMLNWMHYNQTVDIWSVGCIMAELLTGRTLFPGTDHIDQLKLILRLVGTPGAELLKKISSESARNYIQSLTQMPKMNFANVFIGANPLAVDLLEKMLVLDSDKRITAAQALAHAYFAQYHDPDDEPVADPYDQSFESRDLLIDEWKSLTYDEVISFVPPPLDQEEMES
RIPK2, sequence (O43353 whole entry): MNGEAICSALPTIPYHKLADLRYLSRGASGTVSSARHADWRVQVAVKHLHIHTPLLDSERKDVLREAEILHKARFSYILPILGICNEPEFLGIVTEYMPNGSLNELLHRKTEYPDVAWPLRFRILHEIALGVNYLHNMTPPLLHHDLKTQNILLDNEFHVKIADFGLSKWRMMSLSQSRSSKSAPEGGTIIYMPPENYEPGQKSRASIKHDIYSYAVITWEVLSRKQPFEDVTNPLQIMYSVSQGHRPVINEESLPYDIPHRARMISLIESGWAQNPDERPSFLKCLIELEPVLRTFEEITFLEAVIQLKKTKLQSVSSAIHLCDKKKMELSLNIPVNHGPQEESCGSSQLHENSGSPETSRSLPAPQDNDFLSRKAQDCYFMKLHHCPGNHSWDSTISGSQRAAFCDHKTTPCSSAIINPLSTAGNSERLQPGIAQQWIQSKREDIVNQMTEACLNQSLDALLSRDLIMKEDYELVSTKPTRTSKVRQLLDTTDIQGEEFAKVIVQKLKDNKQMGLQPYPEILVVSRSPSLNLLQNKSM
LYN, sequence (P07948 whole entry): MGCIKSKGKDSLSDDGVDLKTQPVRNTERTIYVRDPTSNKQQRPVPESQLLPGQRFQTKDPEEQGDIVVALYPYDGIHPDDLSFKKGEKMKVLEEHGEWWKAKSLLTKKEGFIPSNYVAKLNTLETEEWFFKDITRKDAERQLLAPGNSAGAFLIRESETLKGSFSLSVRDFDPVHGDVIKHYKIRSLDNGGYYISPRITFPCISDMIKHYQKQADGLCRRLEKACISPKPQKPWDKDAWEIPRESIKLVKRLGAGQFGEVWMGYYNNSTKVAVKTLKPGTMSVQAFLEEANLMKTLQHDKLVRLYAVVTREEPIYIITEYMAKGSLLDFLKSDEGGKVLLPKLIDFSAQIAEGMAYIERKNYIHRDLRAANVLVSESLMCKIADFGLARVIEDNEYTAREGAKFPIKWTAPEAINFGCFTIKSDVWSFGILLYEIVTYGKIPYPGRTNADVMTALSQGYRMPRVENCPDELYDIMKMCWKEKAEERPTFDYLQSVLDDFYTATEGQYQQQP

COc1cc2ncnc(Nc3ccc(F)c(Cl)c3)c2cc1OCCCN [AX14596]
Ki (JNK2 (MAPK9)): 110 µM
r (3 mg/1 mg lysate) (JNK2 (MAPK9)): 2.58
r (5 h/2.5 h inc. time) (JNK2 (MAPK9)): 0.95
rAVERAGE (2. inc/1. inc) (JNK2 (MAPK9)): 0.52
rAVERAGE (control/1. inc) (JNK2 (MAPK9)): 0.03
% BOUND (JNK2 (MAPK9); bound to AX14596 beads): 48%
Ki (LYN): 195 µM
r (3 mg/1 mg lysate) (LYN): 2.14
r (5 h/2.5 h inc. time) (LYN): 0.98
rAVERAGE (2. inc/1. inc) (LYN): 0.66
rAVERAGE (control/1. inc) (LYN): 0.07
% BOUND (LYN; bound to AX14596 beads): 34%
Ki (RIPK2): 6.2 µM and 6.19 µM
r (3 mg/1 mg lysate) (RIPK2): 2.68
r (5 h/2.5 h inc. time) (RIPK2): 0.90
rAVERAGE (2. inc/1. inc) (RIPK2): 0.06
rAVERAGE (control/1. inc) (RIPK2): 0.02
% BOUND (RIPK2; bound to AX14596 beads): 94%
Ki (YES (YES1)): 658 µM
r (3 mg/1 mg lysate) (YES (YES1)): 2.03
r (5 h/2.5 h inc. time) (YES (YES1)): 0.98
rAVERAGE (2. inc/1. inc) (YES (YES1)): 0.87
rAVERAGE (control/1. inc) (YES (YES1)): 0.05
% BOUND (YES (YES1); bound to AX14596 beads): 13%
Ki (EphB2): 213 µM
r (3 mg/1 mg lysate) (EphB2): 3.41
r (5 h/2.5 h inc. time) (EphB2): 1.06
rAVERAGE (2. inc/1. inc) (EphB2): 0.68
rAVERAGE (control/1. inc) (EphB2): 0.04
Ki (CDA): 402 µM
r (3 mg/1 mg lysate) (CDA): 3.09
rAVERAGE (2. inc/1. inc) (CDA): 0.80
rAVERAGE (control/1. inc) (CDA): 0.09
Ki [1]: 332 µM
r (3 mg/1 mg lysate) [1]: 2.74
r (5 h/2.5 h inc. time) [1]: 1.15
rAVERAGE (2. inc/1. inc) [1]: 0.77
rAVERAGE (control/1. inc) [1]: 0.06
